2 molecules from ChEMBL document CHEMBL1811831, “Minutissamides A-D, antiproliferative cyclic decapeptides from the cultured cyanobacterium Anabaena minutissima” (J Nat Prod, 2011) can be followed below.

For orientation: IC50 means the point on the concentration scale where inhibition reaches its midpoint. Higher therefore signals a need for much substance.

The experiment has as its system HT-29. Put plainly: Antiproliferative activity against human HT-29 cells. The format is functional, cell-based.

`C/C=C1/NC(=O)[C@H](CC(N)=O)NC(=O)/C(=C\C)NC(=O)[C@H](C(C)C)NC(=O)[C@H](O)[C@@H]([C@@H](C)CCCCCCCCCl)NC(=O)[C@@H]2CCCN2C(=O)[C@H](CC(N)=O)N(C)C(=O)[C@H]([C@@H](C)O)NC(=O)[C@@H](C)NC(=O)[C@H](CC(N)=O)NC1=O` [MINUTISSAMIDE B] had an IC50 of 20 µM. The result for `C/C=C1/NC(=O)[C@H](CC(N)=O)NC(=O)/C(=C\C)NC(=O)[C@H](C(C)C)NC(=O)[C@H](O)[C@@H]([C@@H](C)CCCCCCCC)NC(=O)[C@@H]2CCCN2C(=O)[C@H](CC(N)=O)N(C)C(=O)[C@H]([C@@H](C)O)NC(=O)[C@@H](C)NC(=O)[C@H](CC(N)=O)NC1=O` [MINUTISSAMIDE A] reads 2 µM.
